For the first test, the system named is NL-RLuc virus. Nature of the test: Inhibition of HIV replication (NL-RLuc virus, luciferase readout in MT-2 cells). Type of test: cell-based. As to conditions: Human immunodeficiency virus 1, MT2, 120 h, MT-2 cells infected with NL-RLuc virus, 5 days of incubation, 10% FBS, at least 2 experiments. In outline: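 EC50 derived via median effect equation from at least 2 experiments, using luciferase expression as virus-growth readout. Replication-competent NL-RLuc reporter virus (nef partly replaced by Renilla luciferase) infected MT-2 cells with serial compound dilutions; 5-day incubation in RPMI 1640 plus 10% FBS.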
As a reminder, the EC50 is the midpoint of the concentration-response curve. A lower EC50 goes with greater potency. On to `Cc1nc(N)c(-c2cnc(NCCc3ccc(F)cc3)c(F)c2)c(N2CCC(C)(C)CC2)c1[C@H](OC(C)(C)C)C(=O)O` [Example 113, (S)-2-(2-Amino-4-(4,4-dimethylpiperidin-1-yl)-5′-fluoro-6′-((4-fluorophenethyl)amino)-6-methyl-[3, 3′-bipyridin]-5-yl)-2-(tert-butoxy)acetic acid], for which the EC50 was 3 nM. In other words, the single-digit nanomolar range. The same measure, in the same setting: next, `Cc1ccccc1CCOc1ncc(-c2cnc(C)c([C@H](OC(C)(C)C)C(=O)O)c2N2CCC(C)(C)CC2)cc1F` [Example 385, (2S)-2-(tert-butoxy)-2-[4-(4,4-dimethylpiperidin-1-yl)-5′-fluoro-6-methyl-6′-[2-(2-methylphenyl)ethoxy]-[3,3′-bipyridine]-5-yl]acetic acid]: 3 nM; `Cc1ncc(-c2cc(F)cc(F)c2F)c(N2CCC(C)(C)CC2)c1[C@H](OC(C)(C)C)C(=O)O` [Example 174, (2S)-2-(tert-Butoxy)-2-[4-(4,4-dimethylpiperidin-1-yl)-2-methyl-5-(2,3,5-trifluorophenyl)pyridin-3-yl]acetic acid]: 11 nM; `Cc1ncc(-c2cnc(OCCc3ccccc3F)c(F)c2)c(N2CCC(C)(C)CC2)c1[C@H](OC(C)(C)C)C(=O)O` [Example 120, (S)-2-(tert-Butoxy)-2-(4-(4,4-dimethylpiperidin-1-yl)-5′-fluoro-6′-(2-fluorophenethoxy)-6-methyl-[3, 3′-bipyridin]-5-yl)acetic acid]: 2 nM. On the same count and under the same terms, next, `CC(=O)N1CCC(Nc2nc(C)c([C@H](OC(C)(C)C)C(=O)O)c(N3CCC(C)(C)CC3)c2-c2ccc(OCCc3ccc(F)cc3)cc2)CC1` [Example 100, (S)-2-(6-((1-Acetylpiperidin-4-yl)amino)-4-(4,4-dimethylpiperidin-1-yl)-5-(4-(4-fluorophenethoxy)phenyl)-2-methylpyridin-3-yl)-2-(tert-butoxy)acetic acid]: 0.5 nM; `Cc1ncc(-c2ccc(OCCc3ccc(F)cc3)nc2F)c(N2CCC(C)(C)CC2)c1[C@H](OC(C)(C)C)C(=O)O` (single isomer, unassigned) [Example 263]: 3 nM; `Cc1cn(-c2nc(C)c([C@H](OC(C)(C)C)C(=O)O)c(N3CCC(C)(C)CC3)c2-c2ccc(OCCc3ccc(F)cc3)cc2)cn1` (single isomer, unassigned) [Example 56]: 2 nM. The same measure, in the same setting: for `COc1c(F)cc(-c2c(CN3CCCCCCC3)nc(C)c([C@H](OC(C)(C)C)C(=O)O)c2N2CCC(C)(C)CC2)cc1F` [Example 199, (2S)-2-{6-[(Azocan-1-yl)methyl]-5-(3,5-difluoro-4-methoxyphenyl)-4-(4,4-dimethylpiperidin-1-yl)-2-methylpyridin-3-yl}-2-(tert-butoxy)acetic acid] the value was 4 nM; for `Cc1ncc(-c2ccc(OC(C)C)c(F)c2F)c(N2CCC(C)(C)CC2)c1[C@H](OC(C)(C)C)C(=O)O` [Example 169, (2S)-2-(tert-Butoxy)-2-{5-[2,3-difluoro-4-(propan-2-yloxy)phenyl]-4-(4,4-dimethylpiperidin-1-yl)-2-methylpyridin-3-yl}acetic acid], 7 nM. Regarding `CN(Cc1nc(Cl)c([C@H](OC(C)(C)C)C(=O)O)c(N2CCC(C)(C)CC2)c1-c1ccc(OCCc2ccc(F)cc2)cc1)CC1CCOCC1` [Example 213, (S)-2-(tert-Butoxy)-2-(2-chloro-4-(4,4-dimethylpiperidin-1-yl)-5-(4-(4-fluorophenethoxy)phenyl)-6-((methyl((tetrahydro-2H-pyran-4-yl)methyl)amino)methyl)pyridin-3-yl)acetic acid], the midpoint of the response, the EC50, lay at 0.6 nM. Same read-out and setting: for `Cc1ncc(-c2cncc(CCC(C)C)c2)c(N2CCC(C)(C)CC2)c1[C@H](OC(C)(C)C)C(=O)O` [Example 419, (S)-2-(tert-Butoxy)-2-(4-(4,4-dimethylpiperidin-1-yl)-5′-isopentyl-6-methyl-[3, 3′-bipyridin]-5-yl)acetic acid] the value was 31 nM; for `Cc1cc(CCOc2ncc(-c3cnc(C)c([C@H](OC(C)(C)C)C(=O)O)c3N3CCC(C)(C)CC3)cc2F)ccc1F` [Example 397, (2S)-2-(tert-butoxy)-2-[4-(4,4-dimethylpiperidin-1-yl)-5′-fluoro-6′-[2-(4-fluoro-3-methylphenyl)ethoxy]-6-methyl-[3,3′-bipyridine]-5-yl]acetic acid], 2 nM; for `Cc1ccnc(Nc2nc(C)c([C@H](OC(C)(C)C)C(=O)O)c(N3CCC(C)(C)CC3)c2-c2ccc(OCCc3ccc(F)cc3)cc2)c1` [Example 79, (S)-2-(tert-Butoxy)-2-(4-(4,4-dimethylpiperidin-1-yl)-5-(4-(4-fluorophenethoxy)phenyl)-2-methyl-6-((4-methylpyridin-2-yl)amino)pyridin-3-yl)acetic acid], 6 nM. The same measure, in the same setting: next, `COc1ccc(-c2c(CN3CCC4(CCC4)CC3)nc(C)c([C@H](OC(C)(C)C)C(=O)O)c2N2CCC(C)(C)CC2)cc1` [Example 192, (2S)-2-[6-({7-Azaspiro[3.5]nonan-7-yl}methyl)-4-(4,4-dimethylpiperidin-1-yl)-5-(4-methoxyphenyl)-2-methylpyridin-3-yl]-2-(tert-butoxy)acetic acid]: 1 nM; `Cc1ccc(-c2cnc(C)c([C@H](OC(C)(C)C)C(=O)O)c2N2CCC(C)(C)CC2)nc1` [Example 185, (2S)-2-(tert-Butoxy)-2-[4′-(4,4-dimethylpiperidin-1-yl)-5,6′-dimethyl-[2, 3′-bipyridine]-5′-yl]acetic acid]: 11 nM; `Cc1cccc(Cl)c1COc1ccc(-c2cnc(C)c([C@H](OC(C)(C)C)C(=O)O)c2N2CCC(C)(C)CC2)cn1` [Example 423, (S)-2-(tert-Butoxy)-2-(6′-((2-chloro-6-methylbenzyl)oxy)-4-(4,4-dimethylpiperidin-1-yl)-6-methyl-[3, 3′-bipyridin]-5-yl)acetic acid]: 8 nM. Same read-out and setting: next, `Cc1ncc(-c2ccc(OCCc3ccc(F)cc3)cn2)c(N2CCC(C)(C)CC2)c1[C@H](OC(C)C)C(=O)O` [Example 271, (S)-2-(4′-(4,4-Dimethylpiperidin-1-yl)-5-(4-fluorophenethoxy)-6′-methyl-[2, 3′-bipyridin]-5′-yl)-2-isopropoxyacetic acid]: 3 nM; `Cc1nc(Nc2ccncn2)c(-c2ccc(OCCc3ccc(F)cc3)cc2)c(N2CCC(C)(C)CC2)c1[C@H](OC(C)(C)C)C(=O)O` [Example 88, (S)-2-(tert-Butoxy)-2-(4-(4,4-dimethylpiperidin-1-yl)-5-(4-(4-fluorophenethoxy)phenyl)-2-methyl-6-(pyrimidin-4-ylamino)pyridin-3-yl)acetic acid]: 0.5 nM; `CCCCCCCOc1ccc(-c2cnc(C)c([C@H](OC(C)(C)C)C(=O)O)c2N2CCC(C)(C)CC2)nc1` [Example 326, (2S)-2-(tert-butoxy)-2-[4′-(4,4-dimethylpiperidin-1-yl)-5-(heptyloxy)-6′-methyl-[2,3′-bipyridine]-5′-yl]acetic acid]: 3 nM.

Staying with this test, now noted: MT-2 cells infected with NL-RLuc virus, 5 days of incubation, 10% FBS, at least 2 experiments.
Turning to `Cc1nc(Nc2ccnc(F)c2)c(-c2ccc(OCCc3ccc(F)cc3)cc2)c(N2CCC(C)(C)CC2)c1[C@H](OC(C)(C)C)C(=O)O` [Example 96, (S)-2-(tert-Butoxy)-2-(4-(4,4-dimethylpiperidin-1-yl)-5-(4-(4-fluorophenethoxy)phenyl)-6-((2-fluoropyridin-4-yl)amino)-2-methylpyridin-3-yl)acetic acid], the response was half-maximal at 21 nM (EC50). That is a double-digit nanomolar value.
